Measured values published in patent US8367328B2, “Method for synthesizing DNA” (Takara Bio Inc., priority 1998, dated 2013).

System: ExTaq DNA Polymerase
Experiment: PCR with ExTaq DNA Polymerase in the presence of cationic complexes
Format: biochemical
Conditions: for Amount of amplified DNA relative to No Addition (=1), ExTaq: 100 pg E. coli JM109 genomic DNA, primers Eco1/Eco2, 30 cycles 98°C 5 s–68°C 1 min, FM-BIO 100
From the text: Using hexaamminecobalt (III) chloride ([Co(NH3)6]Cl3) (manufactured by Sigma), tris(ethylenediamine)cobalt (III) chloride ([Co(C2H8N2)3]Cl3) (manufactured by Aldrich), or tris(ethylenediamine)rhodium (III) trichloride•trihydrate ([Rh(C2H8N2)3]Cl3.3H2O) (manufactured by Aldrich), the effects on the amplification reaction by various kinds of DNA polymerases were examined. As the DNA polymerases, TaKaRa Taq DNA Polymerase (hereinafter referred to as “Taq DNA Polymerase” manufactured by Takara Shuzo Co., Ltd.), Pyrobest DNA Polymerase (manufactured by Takara Shuzo Co., Ltd.) and Ex Taq DNA Polymerase (manufactured by Takara Shuzo Co., Ltd.) were used.
A reaction mixture comprising Escherichia coli JM109 genomic DNA as a template, primers Eco1 and Eco2 as a primer pair, and DNA polymerase was prepared, and PCR was carried out. The compositions of the reaction mixture for each enzyme are as follows.
a reaction mixture comprising 5 μl of 10-fold concentrated buffer for TaKaRa ExTaq DNA Polymerase (manufactured by Takara Shuzo Co., Ltd.), 0.2 mM each of dATP, dCTP, dGTP and dTTP, 100 pg of Escherichia coli JM109 genomic DNA, 1.25 U of TaKaRa EX-Taq DNA Polymerase, and 10 pmol each of primers Eco1 and Eco2 (a final volume being 50 μl).
Further, an aqueous solution of the above-mentioned complexes each so as to have a final concentration of 50 μM, 100 μM, or 200 μM was added to the above reaction mixture.
The reaction was carried out in Fast mode by using TaKaRa PCR Thermal Cycler Personal (manufactured by Takara Shuzo Co., Ltd.). The reaction conditions are as follows. When using Taq DNA Polymerase and Pyrobest DNA Polymerase, the reaction in 30 cycles was carried out for each of these reaction mixtures, wherein one cycle of reaction comprises a process consisting of 98° C., 5 seconds—68° C., 2 minutes, and when using ExTaq DNA Polymerase, the reaction in 30 cycles was carried out for each of these reaction mixtures, wherein one cycle of reaction comprises a process consisting of 98° C., 5 seconds—68° C., 1 minute. After the termination of the reaction, 5 μl of the resulting reaction mixture was subjected to electrophoresis on 2% agarose gel containing ethidium bromide in an amount of 0.00005%. The gel after the electrophoresis was subjected to ultraviolet irradiation to visualize the band ascribed to the amplified product, whereby an amplified fragment was confirmed. The amount of amplified DNA was numerically explained by using a fluorescent image analyzer FM-BIO 100 (manufactured by Takara Shuzo Co., Ltd.). […]
After the termination of the reaction, 5 μL of the resulting reaction mixture was subjected to electrophoresis on 2% agarose gel containing ethidium bromide in an amount of 0.00005%. The gel after the electrophoresis was subjected to ultraviolet irradiation to visualize the band ascribed to the amplified product, whereby an amplified fragment was confirmed.
The DNA polymerases used and the composition for the reaction mixture were similar to those in Example 17, except for the cationic complex, where in cases of using Taq DNA Polymerase and Pyrobest DNA Polymerase, hexaamminecobalt (III) chloride was added so as to have a final concentration of 100 μM, or in a case of using ExTaq DNA Polymerase, hexaamminecobalt (III) chloride was added so as to have a final concentration of 50 μM, respectively. Further, the amount of template DNA was added so as to be 1 pg, 5 pg, 10 pg, 100 pg, or 1 ng, respectively.
The reaction was carried out in Fast mode by using TaKaRa PCR Thermal Cycler Personal. The reaction conditions are as follows. When using Taq DNA Polymerase and Pyrobest DNA Polymerase, the reaction in 30 cycles was carried out, wherein one cycle of reaction comprises a process consisting of 98° C., 5 seconds—68° C., 2 minutes. When using ExTaq DNA Polymerase, the reaction in 30 cycles was carried out, wherein one cycle of reaction comprises a process consisting of 98° C., 5 seconds—68° C., 1 minute. […]

Structure (SMILES)	Amount of amplified DNA relative to No Addition (=1), ExTaq (complex 50 μM)	Amount of amplified DNA relative to No Addition (=1), ExTaq (complex 100 μM)	Amplification with one-half the usual enzyme amount versus usual amount without addition (ExTaq 0.625 U + 50 μM complex vs 1.25 U without addition)	Primer amount with which a fragment can still be amplified (ExTaq, 50 μM complex, primers 2–20 pmol tested, no amplification without addition) [pmol]	Amount of template DNA at which amplification was still possible (ExTaq, 50 μM complex, templates 1 pg–1 ng tested, no amplification at 1 pg without addition) [pg]	Amplification in low-magnesium reaction mixture (ExTaq, 1.25 mM magnesium chloride (usual 2 mM), 10 μM complex, no amplification without addition)	Amount of amplified DNA relative to No Addition (=1), ExTaq (complex 200 μM)
NCCN.NCCN.NCCN.[Cl-].[Cl-].[Cl-].[Co+3] [[Co(H2NCH2CH2NH2)3]Cl3, tris(ethylenediamine)cobalt (III) chloride]	2.0	2.0					
N.N.N.N.N.N.[Cl-].[Cl-].[Cl-].[Co+3] [[Co(NH3)6]Cl3, hexaamminecobalt (III) chloride]	1.9	1.9	almost the same level	2.5	1	allowed to amplify	
NCCN.NCCN.NCCN.O.O.O.[Cl][Rh]([Cl])[Cl] [[Rh(H2NCH2CH2NH2)3]Cl3, tris(ethylenediamine)rhodium (III) trichloride•trihydrate]	1.3	1.5					1.7
